Data from patent publication US12427144B2, “Compounds and methods for the targeted degradation of androgen receptor” (Arvinas Operations, Inc., priority 2019, dated 2025).

Biological target: T1, Androgen Receptor (AR) (Homo sapiens, UniProt P10275)
T1 construct: endogenous in cells; host or cells: VCaP
T1 sequence (P10275 1-920): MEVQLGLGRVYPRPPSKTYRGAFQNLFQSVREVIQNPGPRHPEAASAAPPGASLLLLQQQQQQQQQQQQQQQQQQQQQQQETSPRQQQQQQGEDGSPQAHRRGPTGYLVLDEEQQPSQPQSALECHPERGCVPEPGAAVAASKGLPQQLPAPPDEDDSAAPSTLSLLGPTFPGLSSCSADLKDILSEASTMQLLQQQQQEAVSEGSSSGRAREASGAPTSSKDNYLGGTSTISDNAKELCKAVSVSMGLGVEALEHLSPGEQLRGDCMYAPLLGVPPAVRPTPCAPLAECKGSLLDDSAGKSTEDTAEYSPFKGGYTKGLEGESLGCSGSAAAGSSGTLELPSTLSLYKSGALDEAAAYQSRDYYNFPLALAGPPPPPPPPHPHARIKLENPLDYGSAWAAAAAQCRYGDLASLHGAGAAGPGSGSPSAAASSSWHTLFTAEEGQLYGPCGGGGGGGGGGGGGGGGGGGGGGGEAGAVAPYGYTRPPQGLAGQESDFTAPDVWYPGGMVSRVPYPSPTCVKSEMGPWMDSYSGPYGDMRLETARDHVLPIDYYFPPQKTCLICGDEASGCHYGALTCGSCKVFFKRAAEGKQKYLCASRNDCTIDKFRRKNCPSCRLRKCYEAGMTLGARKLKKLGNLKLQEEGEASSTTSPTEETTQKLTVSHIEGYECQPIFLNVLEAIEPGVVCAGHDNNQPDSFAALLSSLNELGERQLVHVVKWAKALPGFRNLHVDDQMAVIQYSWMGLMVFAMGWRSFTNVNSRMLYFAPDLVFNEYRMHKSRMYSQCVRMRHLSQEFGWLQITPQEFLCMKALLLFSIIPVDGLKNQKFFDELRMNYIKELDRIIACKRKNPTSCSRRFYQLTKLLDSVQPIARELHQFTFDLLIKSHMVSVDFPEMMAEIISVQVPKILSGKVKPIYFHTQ
Experiment: AR immunofluorescence staining, high content imager, VCaP cells
Type: cell-based
Conditions: for DC50: AR degradation by immunofluorescence; for Dmax: maximal AR degradation
Experimental: AR Immunofluorescence Staining of Cells for the High Content Imager was performed as follows: Following treatment of the cells with compound (using the central 60 wells of a 96-well plate), media was removed by aspiration, followed by addition of 50 μL per well of 4% paraformaldehyde (PFA) in PBS supplemented with 2 mM MgCl2 and 2 mM CaCl2. Fixed cells were incubated at RT for 15 minutes. For particularly low adherence cell lines (e.g., VCaP), a 2× solution of 8% PFA was added directly to wells instead. Cells were washed once with 200 μL PBS/well. To permeabilize cells 50 μL/well of 0.1% Triton X-100 in PBS was added and incubated for 5 minutes. Cells were washed once with 200 μL PBSS/well. 100 μL/well of Licor Odyssey Blocking Buffer was added for 1 hour at 20° C. Wells were aspirated and AR antibody (1:1000 in Licor Odyssey blocking buffer; 50 μL/well; CST 5153s) was added. Plates were incubated overnight at 4° C. Plates were washed 3 times with 200 EL PBS/well. The appropriate secondary antibody was added (50 μL/well; diluted in Licor Odyssey blocking buffer) and incubated for 1 hour at RT in the dark as prepared below using Anti-rabbit FITC (1:5000; […]) and Phalloidin-Alexafluor 648 (1:500; […]). Cells were washed once with 200 μL PBS/well. 50 μL DAPI or Hoechst 33342 diluted 1:1000 in Licor Odyssey blocking buffer was added to the wells. Cells were washed 3 times with 200 μL PBS/well. The plates were covered with a clear plastic sealer and refrigerated in the dark until ready to analyze. The cells were analyzed using a Molecular Devices IXM high content imager and analyzed using Molecular Devices metaXpress software suite.

Compound	DC50 [nM]	Dmax [%]
COc1cc(O[C@H]2C(C)(C)[C@H](NC(=O)c3ccc(N4CCO[C@@H](CN(C(C)C)[C@H]5C[C@H](Oc6ccc(C(=O)N[C@H]7CCC(=O)NC7=O)c(F)c6)C5)C4)cc3)C2(C)C)ccc1C#N [Compound 44, 4-[(2S)-2-([isopropyl[(1R,3R)-3-(4-[[(3S)-2,6-dioxopiperidin-3-yl]carbamoyl]-3-fluorophenoxy)cyclobutyl]amino]methyl)morpholin-4-yl]-N-[(1R,3R)-3-(4-cyano-3-methoxyphenoxy)-2,2,4,4-tetramethylcyclobutyl]benzamide]	< 1	≥ 70
N#Cc1ccc(O[C@H]2CC[C@H](NC(=O)c3ccc(N4CCC(CN5CCN(c6ccc(C(=O)NC7CCC(=O)NC7=O)cc6)CC5)CC4)nn3)CC2)cc1Cl (stereo partly shown) [Compound 23, N-[4-(3-chloro-4-cyano-phenoxy)cyclohexyl]-6-[4-[[4-[4-[(2,6-dioxo-3-piperidyl)carbamoyl]phenyl]piperazin-1-yl]methyl]-1-piperidyl]pyridazine-3-carboxamide]	< 1	≥ 70
Cc1cc(O[C@H]2C(C)(C)[C@H](NC(=O)c3ccc(N4CCC(CN5CCN(c6ccc(C(=O)N[C@H]7CCC(=O)NC7=O)cn6)CC5)CC4)cc3)C2(C)C)cc(C)c1C#N [Compound 46]	< 1	≥ 70
COc1cc(O[C@H]2C(C)(C)[C@H](NC(=O)c3ccc(N4CCC(CN5CCN(c6ccc(C(=O)N[C@H]7CCC(=O)NC7=O)nc6)CC5)CC4)cc3)C2(C)C)ccc1C#N [Compound 40, 5-[4-[[1-[4-[[3-(4-cyano-3-methoxy-phenoxy)-2,2,4,4-tetramethyl-cyclobutyl]carbamoyl]phenyl]-4-piperidyl]methyl]piperazin-1-yl]-N-[(3S)-2,6-dioxo-3-piperidyl]pyridine-2-carboxamide]	< 1	≥ 70
Cc1cc(O[C@H]2C(C)(C)[C@H](NC(=O)c3ccc(N4CCO[C@@H](CN5CCN(c6ccc(C(=O)N[C@H]7CCC(=O)NC7=O)c(F)c6)CC5)C4)cc3)C2(C)C)cc(C)c1C#N [Compound 52, N-[(3S)-2,6-dioxopiperidin-3-yl]-2-fluoro-4-(4-{[(2S)-4-(4-{[(1r,3r)-3-(4-cyano-3,5-dimethylphenoxy)-2,2,4,4-tetramethylcyclobutyl]carbamoyl}phenyl)morpholin-2-yl]methyl}piperazin-1-yl)benzamide]	< 1	≥ 70
COc1cc(O[C@H]2C(C)(C)[C@H](NC(=O)c3ccc(N4CCO[C@H](CN(C(C)C)[C@H]5C[C@@H](Oc6ccc(C(=O)N[C@H]7CCC(=O)NC7=O)c(F)c6)C5)C4)cc3)C2(C)C)ccc1C#N [Compound 43, 4-[(2R)-2-([isopropyl[(1r,3r)-3-(4-[[(3S)-2,6-dioxopiperidin-3-yl]carbamoyl]-3-fluorophenoxy)cyclobutyl]amino]methyl)morpholin-4-yl]-N-[(1r,3r)-3-(4-cyano-3-methoxyphenoxy)-2,2,4,4-tetramethylcyclobutyl]benzamide]	< 1	≥ 70
Cc1cc(O[C@H]2C(C)(C)[C@H](NC(=O)c3ccc(N4CCO[C@H](CN5CCN(c6ccc(C(=O)N[C@H]7CCC(=O)NC7=O)c(F)c6)CC5)C4)cc3)C2(C)C)cc(C)c1C#N [Compound 48, N-[(3S)-2,6-dioxopiperidin-3-yl]-2-fluoro-4-(4-{[(2R)-4-(4-{[(1r,3r)-3-(4-cyano-3,5-dimethylphenoxy)-2,2,4,4-tetramethylcyclobutyl]carbamoyl}phenyl)morpholin-2-yl]methyl}piperazin-1-yl)benzamide]	< 1	≥ 70
Cc1cc(O[C@H]2C(C)(C)[C@H](NC(=O)c3ccc(N4CCC(CN5CCOCCCCOc6ccc(C(=O)NC7CCC(=O)NC7=O)cc6O[C@H]6C[C@H]5C6)CC4)cc3)C2(C)C)cc(C)c1C#N (stereo partly shown) [Compound 74, (1r,18r)-N-(2,6-dioxopiperidin-3-yl)-17-{[1-(4-{[(1r,3r)-3-(4-cyano-3,5-dimethylphenoxy)-2,2,4,4-tetramethylcyclobutyl]carbamoyl}phenyl)piperidin-4-yl]methyl}-2,9,14-trioxa-17-azatricyclo[16.1.1.0^3,8]icosa-3(8),4,6-triene-5-carboxamide]	< 1	< 50
Cc1cc(O[C@H]2C(C)(C)[C@H](NC(=O)c3ccc(N4CCC(CN5CCOCCCCOc6cc(C(=O)NC7CCC(=O)NC7=O)ccc6O[C@H]6C[C@H]5C6)CC4)cc3)C2(C)C)cc(C)c1C#N (stereo partly shown) [Compound 64, (1r,18r)-N-(2,6-dioxopiperidin-3-yl)-17-{[1-(4-{[(1r,3r)-3-(4-cyano-3,5-dimethylphenoxy)-2,2,4,4-tetramethylcyclobutyl]carbamoyl}phenyl)piperidin-4-yl]methyl}-2,9,14-trioxa-17-azatricyclo[16.1.1.0^3,8]icosa-3(8),4,6-triene-6-carboxamide]	< 1	50 to 70
N#Cc1ccc(O[C@H]2CC[C@H](NC(=O)c3ccc(N4CCC(CN5CCN(c6ccc(C(=O)NC7CCC(=O)NC7=O)cn6)CC5)CC4)nn3)CC2)cc1Cl (stereo partly drawn) [Compound 30, N-((1R,4R)-4-(3-chloro-4-cyanophenoxy)cyclohexyl)-6-(4-((4-(5-((2,6-dioxopiperidin-3-yl)carbamoyl)pyridin-2-yl)piperazin-1-yl)methyl)piperidin-1-yl)pyridazine-3-carboxamide]	< 1	≥ 70
N#Cc1ccc(O[C@H]2CC[C@H](NC(=O)c3ccc(N4CCC(CN5CCN(c6ccc(C(=O)NC7CCC(=O)NC7=O)nc6)CC5)CC4)nn3)CC2)cc1Cl (stereo partly drawn) [Compound 22, N-((1R,4R)-4-(3-chloro-4-cyanophenoxy)cyclohexyl)-6-(4-((4-(6-((2,6-dioxopiperidin-3-yl)carbamoyl)pyridin-3-yl)piperazin-1-yl)methyl)piperidin-1-yl)pyridazine-3-carboxamide]	< 1	≥ 70
COCCN(C[C@@H]1CN(c2ccc(C(=O)N[C@H]3C(C)(C)[C@H](Oc4cc(C)c(C#N)c(C)c4)C3(C)C)cc2)CCO1)[C@H]1C[C@@H](Oc2ccc(C(=O)N[C@H]3CCC(=O)NC3=O)c(F)c2)C1 [Compound 45, 4-[(2R)-2-{[(2-methoxyethyl)[(1r,3r)-3-(4-{[(3S)-2,6-dioxopiperidin-3-yl]carbamoyl}-3-fluorophenoxy)cyclobutyl]amino]methyl}morpholin-4-yl]-N-[(1r,3r)-3-(4-cyano-3,5-dimethylphenoxy)-2,2,4,4-tetramethylcyclobutyl]benzamide]	< 1	≥ 70
COc1cc(O[C@H]2C(C)(C)[C@H](NC(=O)c3ccc(N4CCC(CN5CCN(c6ccc(C(=O)N[C@H]7CCC(=O)NC7=O)cn6)CC5)CC4)cc3)C2(C)C)ccc1C#N [Compound 42, N-[(3S)-2,6-dioxopiperidin-3-yl]-6-(4-{[1-(4-{[(1r,3r)-3-(4-cyano-3-methoxyphenoxy)-2,2,4,4-tetramethylcyclobutyl]carbamoyl}phenyl)piperidin-4-yl]methyl}piperazin-1-yl)pyridine-3-carboxamide]	< 1	≥ 70
CC(C)N(CC1CCN(c2cnc(C(=O)N[C@H]3CC[C@H](Oc4ccc(C#N)c(Cl)c4)CC3)cn2)CC1)[C@H]1C[C@H](Oc2ccc(C(=O)NC3CCC(=O)NC3=O)cc2)C1 (stereo partly shown) [Compound 27, N-[4-(3-chloro-4-cyano-phenoxy)cyclohexyl]-5-[4-[[[3-[4-[(2,6-dioxo-3-piperidyl)carbamoyl]phenoxy]cyclobutyl]-isopropyl-amino]methyl]-1-piperidyl]pyrazine-2-carboxamide]	< 1	≥ 70
